The values below come from ChEMBL document CHEMBL5614431, “Discovery of 1,3,4-oxadiazoles with slow-action activity against Plasmodium falciparum malaria parasites” (Eur J Med Chem, 2024).

A short description of data set [1]: Selectivity index, ratio of IC50 for cytotoxicity against human NFF cells to IC50 for antimalarial activity against synchronous ring stage Plasmodium falciparum 3D7 infected in human Erythrocyte assessed as inhibition of parasite growth incubated for 96 hrs. To be noted: read-out: Ratio IC50. The class given is toxicity, cell-based.
Data set [2] can be described thus: AUC (0 to t) in non fasted female BALB/c mouse plasma at 100 mg/kg, po via gavage and measured after 4 hrs by LC-MS analysis. The class given is ADME, organism-based.
Data set [3] can be described thus: Selectivity ratio of IC50 for antimalarial activity against synchronous ring stage Plasmodium falciparum 3D7 infected in human Erythrocyte assessed as inhibition of parasite growth incubated for 48 hrs by [3H]-hypoxanthine incorporation assay to IC50 for antimalarial activity against synchronous ring stage Plasmodium falciparum 3D7 infected in human Erythrocyte assessed as inhibition of parasite growth incubated for 48 hrs by [3H]-hypoxanthine incorporation assay. The class given is functional.

Data set [4] concerns Plasmodium falciparum. Description: Antimalarial activity against synchronous ring stage Plasmodium falciparum 3D7 infected in human Erythrocyte assessed as inhibition of parasite growth incubated for 96 hrs by [3H]-hypoxanthine incorporation assay. The class given is functional, organism-based. The settings on record: 3D7, Erythrocyte.
Data set [5] in a line: Cytotoxicity against human NFF cells assessed as reduction in cell viability incubated for 72 hrs by SRB assay. The format is toxicity, cell-based. On the technique in general: In SRB staining, fixed cells bind dye roughly in proportion to their protein.
Data set [6] in a line: Tmax in non fasted female BALB/c mouse at 100 mg/kg, po via gavage and measured upto 24 hrs by LC-MS analysis. To be noted: in vivo. The class given is ADME, organism-based.
The nature of data set [7]: AUC (0 to infinity) in non fasted female BALB/c mouse at 100 mg/kg, po via gavage and measured upto 24 hrs by LC-MS analysis. The format is ADME, organism-based. To be noted: in vivo.
The nature of data set [8]: Cmax in non fasted female BALB/c mouse plasma at 100 mg/kg, po via gavage and measured upto 24 hrs by LC-MS analysis. The class given is ADME, organism-based.
Data set [9] is described as follows: Apparent half life in non fasted female BALB/c mouse at 100 mg/kg, po via gavage and measured upto 24 hrs by LC-MS analysis. The settings on record: in vivo, read-out: t1/2(app) (converted). The format is ADME, organism-based.
The test system of data set [10] is Plasmodium falciparum. The data set is described as follows: Antimalarial activity against synchronous ring stage Plasmodium falciparum 3D7 infected in human Erythrocyte assessed as inhibition of parasite growth incubated for 48 hrs by [3H]-hypoxanthine incorporation assay. The class given is functional, organism-based. The settings on record: 3D7, Erythrocyte.

Data set [11] is described as follows: AUC (0 to t) in non fasted female BALB/c mouse plasma at 100 mg/kg, po via gavage and measured after 7.5 hrs by LC-MS analysis. The class given is ADME, organism-based.
Data set [12] can be described thus: Chemical stability of the compound in 1:1 mixture of 6M aqueous hydrochloric acid/THF assessed as degradation measured over 20 hrs. The settings on record: buffer. The format is physicochemical.
The subject of data set [13] is Plasmodium berghei. Description: Antimalarial activity against Plasmodium berghei ANKA infected in female BALB/c mouse model assessed as reduction in parasitemia at 10 mg/kg, po qd pre-infected for 2 hrs followed by compound addition and measured after 3 days by microscopic analysis. The format is functional, organism-based. The settings on record: time 3.0 day.

SMILES strings stand for the structures. Activity calls are given as the source filed them. The rule behind the calls is not given here.

As to `O=S(=O)(CC1CCC1)c1nnc(N2CCOCC2)o1`, the selectivity ratio at 96 h in data set [1] is greater than 186. The AUC(0-t) (usually the area under the concentration-time curve up to a stated or last time point) at 4 h in data set [2] was determined as 3.61 µM·h. In data set [3], the “Ratio IC50” value is on record as greater than 19. The results for the IC50 in data set [4] and in [10] were 0.53 µM and greater than 10 µM, respectively. For the same compound, in data set [5], the IC50 (usually the concentration needed to halve the response being measured) at 72 h is greater than 100 µM. The Tmax (commonly the time at which the peak concentration occurs) in data set [6] amounted to 15 min. For the same compound, in [7], the AUC(0-inf) (as a rule, total exposure, with the tail of the curve extrapolated) was 3.91 µM·h. In addition, the Cmax – broadly, the maximum level reached in the sampled fluid or tissue – in [8] stood at 2140 nM. Besides, in [9], the half-life was 57 min.

Consider `C[C@@H]1CCC[C@H](C)N1c1nnc(S(=O)(=O)C2CCCCC2)o1`, for which the selectivity ratio at 96 h in data set [1] is greater than 1670. The compound also gave an AUC(0-t) at 7.5 h in data set [11] of 0.39 µM·h. For the same compound, in data set [3], the “Ratio IC50” value is listed as greater than 165. Also, the IC50 is 0.08 µM in [4] and greater than 12.5 µM in [10]. Besides, the Stability result in [12] was “Stable”. In addition, the IC50 at 72 h in [5] is greater than 100 µM. Also, the Tmax in [6] stood at 30 min. In data set [7], this compound showed a total exposure AUC(0-inf) of 0.41 µM·h. In [8], this compound yielded a Cmax of 310 nM. Moreover, the half-life in data set [9] is 96 min.

On to `CCN(CC)CCCC(C)Nc1ccnc2cc(Cl)ccc12` (stereo not drawn) [CHLOROQUINE], for which the result in data set [13] was Active. In data set [5], the IC50 at 72 h turned out to be 36.7 µM.
